Test results from PubChem BioAssay AID248 (DTP/NCI, 2004).
Values joined by “and” are separate entries in the source; they are usually repeats but may differ in a detail not shown here. Identical values can stand only once. Inconclusive results and toxic doses are left out. No stated cut-off is given here; in the data, active means T/C of 150% or more; inactive means T/C below 125%.

System: L1210 leukemia ip in BDF1 mice, survival T/C
Assay: NCI In Vivo Anticancer Drug Screen. Data for tumor model L1210 Leukemia (intraperitoneal) in B6D2F1 (BDF1) mice
Conditions: endpoint: mean survival time, higher = longer survival
Summary of the method: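 Tumor was transplanted into mice, which were then dosed with test compound or vehicle alone. Survival was recorded for each group, and the treated figure was expressed relative to the control figure.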

[1] = dose: 100.0 mg/kg/injection, schedule: Q04DX003 (ip), vehicle: saline
[2] = dose: 200.0 mg/kg/injection, schedule: Q04DX003 (ip), vehicle: saline
[3] = dose: 400.0 mg/kg/injection, schedule: Q04DX003 (ip), vehicle: saline
[4] = dose: 100.0 mg/kg/injection, schedule: Q04DX002 (ip), vehicle: Klucel (hydroxypropylcellulose) (HPC)
[5] = dose: 200.0 mg/kg/injection, schedule: Q04DX002 (ip), vehicle: Klucel (hydroxypropylcellulose) (HPC)
[6] = dose: 400.0 mg/kg/injection, schedule: Q04DX002 (ip), vehicle: Klucel (hydroxypropylcellulose) (HPC)
[7] = dose: 100.0 mg/kg/injection, schedule: Q01DX001 (ip), vehicle: Klucel (hydroxypropylcellulose) (HPC)
[8] = dose: 100.0 mg/kg/injection, schedule: Q04DX003 (ip), vehicle: Klucel (hydroxypropylcellulose) (HPC)
[9] = dose: 200.0 mg/kg/injection, schedule: Q01DX001 (ip), vehicle: Klucel (hydroxypropylcellulose) (HPC)
[10] = dose: 200.0 mg/kg/injection, schedule: Q04DX003 (ip), vehicle: Klucel (hydroxypropylcellulose) (HPC)
[11] = dose: 400.0 mg/kg/injection, schedule: Q01DX001 (ip), vehicle: Klucel (hydroxypropylcellulose) (HPC)
[12] = dose: 400.0 mg/kg/injection, schedule: Q04DX003 (ip), vehicle: Klucel (hydroxypropylcellulose) (HPC)
[13] = dose: 100.0 mg/kg/injection, schedule: Q01DX009 (ip), vehicle: Klucel (hydroxypropylcellulose) (HPC)
[14] = dose: 200.0 mg/kg/injection, schedule: Q01DX009 (ip), vehicle: Klucel (hydroxypropylcellulose) (HPC)
[15] = dose: 400.0 mg/kg/injection, schedule: Q01DX009 (ip), vehicle: Klucel (hydroxypropylcellulose) (HPC)
[16] = dose: 100.0 mg/kg/injection, schedule: Q01DX001 (ip), vehicle: saline
[17] = dose: 200.0 mg/kg/injection, schedule: Q01DX001 (ip), vehicle: saline
[18] = dose: 400.0 mg/kg/injection, schedule: Q01DX001 (ip), vehicle: saline

Measured: T/C

Nc1nc(Nc2ccccc2)nc(C(=O)O)n1
inactive: dose: 100.0 mg/kg/injection, schedule: Q01DX009 (ip), vehicle: saline 92 % of control | [1] 110 % of control | dose: 200.0 mg/kg/injection, schedule: Q01DX009 (ip), vehicle: saline 106 % of control | [2] 101 % of control | dose: 400.0 mg/kg/injection, schedule: Q01DX009 (ip), vehicle: saline 115 % of control | [3] 106 % of control

CC(C)=CC1CC(C)C2(CCC3(C)CC4C(C(=O)CC4(C)O)/C(C=O)=C\CC32)O1 (stereo not given)
inactive: dose: 5.0 mg/kg/injection, schedule: Q01DX001 (ip), vehicle: saline 103 % of control | dose: 10.0 mg/kg/injection, schedule: Q01DX001 (ip), vehicle: saline 97 % of control | dose: 20.0 mg/kg/injection, schedule: Q01DX001 (ip), vehicle: saline 97 % of control | dose: 40.0 mg/kg/injection, schedule: Q01DX001 (ip), vehicle: saline 97 % of control | dose: 80.0 mg/kg/injection, schedule: Q01DX001 (ip), vehicle: saline 109 % of control

CCOC(=O)C1C(=O)CC(=O)C(C(=O)OCC)C1c1cc(OC)c(OC)c(OC)c1 (stereo not given)
inactive: [4] 91 % of control | [5] 91 % of control | [6] 94 % of control

OC(c1cc2c3c(c1)CCCN3CCC2)(C(F)(F)F)C(F)(F)F
inactive: dose: 100.0 mg/kg/injection, schedule: Q04DX003 (ip), vehicle: saline with Tween-80 92 % of control | dose: 200.0 mg/kg/injection, schedule: Q04DX003 (ip), vehicle: saline with Tween-80 96 % of control

CCOC(=O)Cc1c[nH]c2ccc(N(CCCl)CCCl)cc12
inactive: dose: 0.55 mg/kg/injection, schedule: Q01DX009 (ip), vehicle: carboxymethylcellulose (CMC) 121 % of control | dose: 7.3 mg/kg/injection, schedule: Q01DX001 (ip), vehicle: carboxymethylcellulose (CMC) 120 % of control | dose: 11.0 mg/kg/injection, schedule: Q01DX001 (ip), vehicle: carboxymethylcellulose (CMC) 124 % of control | dose: 11.1 mg/kg/injection, schedule: Q01DX009 (ip), vehicle: carboxymethylcellulose (CMC) 97 % of control | dose: 16.6 mg/kg/injection, schedule: Q01DX001 (ip), vehicle: carboxymethylcellulose (CMC) 121 % of control | dose: 37.5 mg/kg/injection, schedule: Q01DX001 (ip), vehicle: carboxymethylcellulose (CMC) 94 % of control
active: dose: 1.5 mg/kg/injection, schedule: Q01DX009 (ip), vehicle: carboxymethylcellulose (CMC) 151 % of control | dose: 2.2 mg/kg/injection, schedule: Q01DX009 (ip), vehicle: other 152 % of control | dose: 3.1 mg/kg/injection, schedule: Q01DX009 (ip), vehicle: carboxymethylcellulose (CMC) 160 % of control and 177 % of control | dose: 3.4 mg/kg/injection, schedule: Q01DX009 (ip), vehicle: other 152 % of control | dose: 4.8 mg/kg/injection, schedule: Q01DX009 (ip), vehicle: carboxymethylcellulose (CMC) 168 % of control | dose: 5.0 mg/kg/injection, schedule: Q01DX009 (ip), vehicle: other 169 % of control | dose: 7.0 mg/kg/injection, schedule: Q01DX009 (ip), vehicle: carboxymethylcellulose (CMC) 157 % of control | dose: 7.0 mg/kg/injection, schedule: Q01DX009 (ip), vehicle: other 176 % of control | dose: 7.3 mg/kg/injection, schedule: Q01DX009 (ip), vehicle: carboxymethylcellulose (CMC) 176 % of control | dose: 11.0 mg/kg/injection, schedule: Q01DX009 (ip), vehicle: carboxymethylcellulose (CMC) 168 % of control | dose: 25.0 mg/kg/injection, schedule: Q01DX001 (ip), vehicle: carboxymethylcellulose (CMC) 166 % of control and 225 % of control

CS(=O)(=O)OC1CCCCC1Sc1ccc(Br)cc1 (stereo not given)
inactive: [7] 103 % of control | [8] 101 % of control | [9] 101 % of control | [10] 101 % of control | [11] 101 % of control | [12] 106 % of control

CCCC[As](=O)(O)CC
inactive: dose: 25.0 mg/kg/injection, schedule: Q01DX009 (ip), vehicle: saline 104 % of control

O=C(COc1ccccc1)Nc1ccccc1C(=O)O
inactive: dose: 100.0 mg/kg/injection, schedule: Q01DX001 (ip), vehicle: gum acacia 97 % of control | dose: 200.0 mg/kg/injection, schedule: Q01DX001 (ip), vehicle: gum acacia 90 % of control | dose: 400.0 mg/kg/injection, schedule: Q01DX001 (ip), vehicle: gum acacia 90 % of control

CCOC(=O)Nc1nc2nc[nH]c2c(NC(c2ccccc2)c2ccccc2)c1Br
inactive: [4] 91 % of control | [5] 91 % of control | [6] 86 % of control

CCCC(CCC)NCC(C)O (stereo not given)
inactive: dose: 75.0 mg/kg/injection, schedule: Q01DX001 (ip), vehicle: acid diluted with saline 104 % of control

CCOC(CNC(=O)c1ccc(S(=O)(=O)F)cc1)OCC
inactive: dose: 100.0 mg/kg/injection, schedule: Q04DX003 (ip), vehicle: alcohol 107 % of control | dose: 200.0 mg/kg/injection, schedule: Q04DX003 (ip), vehicle: alcohol 101 % of control | dose: 400.0 mg/kg/injection, schedule: Q04DX003 (ip), vehicle: alcohol 98 % of control

COC(=O)c1ccc(OC(=O)Nc2cccc(C(C)=O)c2)cc1
inactive: [13] 96 % of control | [14] 101 % of control | [15] 104 % of control

CC(CO)(CO)N=Cc1cc(Cl)cc(Cl)c1O
inactive: dose: 50.0 mg/kg/injection, schedule: Q01DX001 (ip), vehicle: carboxymethylcellulose (CMC) 107 % of control | dose: 100.0 mg/kg/injection, schedule: Q01DX001 (ip), vehicle: carboxymethylcellulose (CMC) 97 % of control | dose: 200.0 mg/kg/injection, schedule: Q01DX001 (ip), vehicle: carboxymethylcellulose (CMC) 107 % of control | dose: 400.0 mg/kg/injection, schedule: Q01DX001 (ip), vehicle: carboxymethylcellulose (CMC) 97 % of control

Cc1cc(OCCO)ccc1Cl
inactive: [4] 108 % of control | [5] 108 % of control | [6] 108 % of control

O=C(CCCl)[O][Pb]([O]C(=O)CCCl)([c]1ccccc1)[c]1ccccc1
inactive: [1] 108 % of control

Cc1cc(C)c(NC(=O)Nc2ccccc2C)c(C)c1
inactive: [13] 97 % of control | [8] 108 % of control | [14] 103 % of control | [10] 98 % of control | [15] 99 % of control | [12] 94 % of control

Clc1ccc2c(c1)C(=P(c1ccccc1)(c1ccccc1)c1ccccc1)c1cc(Cl)cc(Cl)c1-2
inactive: [7] 96 % of control | [8] 102 % of control | [9] 96 % of control | [10] 95 % of control | [11] 91 % of control | [12] 93 % of control

COc1ccccc1N=C(C)CC(C)=O
inactive: [7] 100 % of control | [9] 91 % of control | [11] 99 % of control

CC(=O)CC(=O)NCCN1CCN(C(=O)CC(C)=O)CC1
inactive: [16] 93 % of control | [17] 101 % of control | [18] 98 % of control

O=C1CCCO1
inactive: [1] 92 % of control | [2] 100 % of control | [3] 94 % of control

O=C(CF)[O][Sb]([O]C(=O)CF)([c]1ccccc1)([c]1ccccc1)[c]1ccccc1
inactive: dose: 5.0 mg/kg/injection, schedule: Q04DX003 (ip), vehicle: saline with Tween-80 92 % of control | dose: 10.0 mg/kg/injection, schedule: Q04DX003 (ip), vehicle: saline with Tween-80 101 % of control | dose: 20.0 mg/kg/injection, schedule: Q04DX003 (ip), vehicle: saline with Tween-80 106 % of control

CCOc1nc(OCC)c2[nH]c(C(=O)O)c(Br)c2n1
inactive: dose: 50.0 mg/kg/injection, schedule: Q01DX001 (ip), vehicle: saline 107 % of control | [16] 100 % of control | [17] 105 % of control | [18] 107 % of control

O=C1NC(=O)C(CO)(c2ccccc2)N1 (stereo not given)
inactive: dose: 12.5 mg/kg/injection, schedule: Q04DX003 (ip), vehicle: saline 110 % of control | dose: 25.0 mg/kg/injection, schedule: Q04DX003 (ip), vehicle: saline 103 % of control | dose: 50.0 mg/kg/injection, schedule: Q04DX003 (ip), vehicle: saline 100 % of control | [1] 94 % of control | [2] 97 % of control | [3] 100 % of control
